Test results taken from US20230088528A1, “USE OF LIPID IN PREPARATION OF NUCLEIC ACID DELIVERY REAGENT AND RELATED PRODUCT THEREOF” (INSTITUTE OF BASIC MEDICAL SCIENCES CHINESE ACADEMY OF …, priority 2019, published 2023).
Counter-ions that a name gives are not always drawn.

Experiment: In vivo delivery of lipid-nucleic acid mixture (PGY-sRNA-26) by gavage, relative intake in blood and tissues by RT-qPCR
Parameters: species or system C57BL/6 male mice
Settings: for oral delivery of sRNA single-chain nucleic acid into the blood, and lung, kidney, spleen, heart, and intestinal tissue of mice: 100 μg lipid:1 nmol PGY-sRNA-26 per mouse, 12 hrs after gavage, vs free intake group; for oral delivery of sRNA single-stranded nucleic acid into the kidney tissue of mice / oral delivery of sRNA single-stranded nucleic acid into the lung tissue of mice / oral delivery of sRNA single-stranded nucleic acid into the spleen tissue of mice / oral delivery of sRNA single-stranded nucleic acid into the blood of mice: significant difference compared to the control, 100 μg lipid:1 nmol PGY-sRNA-26, 12 hrs
Description: The concentration of a lipid solution in chloroform was 10 mg/ml (stock solution), and grouping was performed according to the lipid compound number.
1 nmol of small RNA (as shown in Table 2) was dissolved in 400 μl of DEPC-treated water in a glass tube, and 10 μl of a corresponding lipid stock solution was added, to give a system containing 100 μg of lipid. The system was well mixed, heated for 15 min in a water bath at 90° C., and then naturally cooled, to obtain a lipid-nucleic acid mixture of the lipid and small RNA.
The C57BL/6 male mice used in the experiment were purchased from Beijing Vital River Laboratory Animal Technology Co., Ltd., about 6 weeks old, and weighed 20-24 g. They were kept in an SPF animal room of the Animal Center of the Institute of Basic Medical Sciences, Chinese Academy of Medical Sciences. The mice were fasted for 12 hrs before gavage.
The lipid-nucleic acid mixture was prepared following the method as described in Example 2. The prepared lipid-nucleic acid mixture was orally administered at a dose of 100 μg lipid:1 nmol single-stranded small RNA PGY-sRNA-26 per mouse.
1) Blank group: Mice (n=4) were given 500 μl of normal saline by gavage, and this group served as a blank control group;
2) Free intake group: Mice (n=4) were given sRNA solution (1 nmol/animal, 500 μl) by direct gavage, and this group served as a negative control group;
3) Lipid treatment group: Mice (n=4) were given 500 μl of the lipid-nucleic acid mixture prepared in step 2 by gavage.
12 hrs after gavage in each group of mice, 500 μl of blood was taken from the eyeball, and 1.5 ml of Trizol Reagent LS (purchased from Invitrogen) was added and mixed well for lysis. The tissue sample was added with 3 ml of Trizol Reagent LS. and homogenized for full lysis, wherein the tissue sample included lung/kidney/spleen/heart/gut. 1 ml of blood or tissue lysate was taken and RNA was extracted according to the following steps.
The blood or tissue lysate was centrifuged at 4° C., and 12,000 rpm for 5 min, the pellet was discarded, and Trizol was transferred to a new centrifuge tube.
Chloroform was added in an amount of 200 μL chloroform/mL Trizol, shaken fully until uniform, and allowed to stand at room temperature for 5 min.
The sample was centrifuged at 4° C., and 12,000 rpm, for 15 min.
The upper aqueous phase was pipetted to another centrifuge tube, and isopropanol was added in an amount of 0.4 mL isopropanol/mL Trizol, mixed well, and allowed to stand at a low temperature for 10-20 min.
The sample was centrifuged at 4° C., and 12,000 rpm, for 15 min, the supernatant was discarded, and the RNA pellet was at the bottom of the tube.
1 mL of 75% ethanol was added, and the centrifuge tube was shaken gently, to suspend the pellet.
The sample was centrifuged at 4° C., and 12,000 rpm, for 10 min, the supernatant was discarded, 1 mL of 75% ethanol was added, and the centrifuge tube was shaken gently, to suspend the pellet.
The sample was centrifuged at 4° C., and 12,000 rpm, for 10 min, the supernatant was discarded, and the sample was air dried at room temperature. The RNA sample was dissolved in 50-100 μL of RNase-free H2O, and the RNA concentration was quantified by determining the OD value.
The sRNA was reversely transcribed into cDNA using a reverse transcription kit (High-Capacity cDNA Reverse Transcription Kits, Applied Biosystems, cat. no. 4368813), following the stem-loop method (see, for example Real-time quantification of microRNAs by stem-loop RT-PCR, Nucleic Acids Res. 2005 Nov. 27; 33(20):e179, incorporated herein by reference). System for reverse transcription: template RNA (200 ng/μL) 10 μL, 10×RT buffer 2.0 μL, 25×dNTP Mix (100 mM) 0.8 μL, U6 RT stem-loop primer 2.0 μL, PGY-sRNA-26 RT stem-loop primer 2.0 μL, MultiScribe™ reverse transcriptase 1.0 μL, RNAase inhibitor 1.0 μL, and nuclease-free water H2O 1.2 μL. […]

Compound | oral delivery of sRNA single-chain nucleic acid into the blood, and lung, kidney, spleen, heart, and intestinal tissue of mice | other results
CCCCCCCC/C=C\CCCCCCCC(=O)O[C@H](COC(=O)CCCCCCCCCCCCCCC)COP(=O)([O-])OCC[N+](C)(C)C [Lipid 86, 1-palmitoyl-2-oleoyl-sn-glycero-3-phosphocholine] | can effectively orally deliver | 
CCCCCCCC/C=C\CCCCCCCC(=O)O[C@H](COC(=O)CCCCCCCCCCCCCCCCC)COP(=O)([O-])OCC[N+](C)(C)C [Lipid 87, 1-stearoyl-2-oleoyl-sn-glycero-3-phosphocholine] | can effectively orally deliver | 
CCCCCCCC/C=C\CCCCCCCCCCCCCC(=O)N[C@@H](CO)[C@H](O)/C=C/CCCCCCCCCCCCC [Lipid 91, N-nervonoyl-D-erythro-sphingosine] | can effectively orally deliver | oral delivery of sRNA single-stranded nucleic acid into the kidney tissue of mice: can significantly efficiently orally deliver
CCCCCCCCCCCCCCCCC/C=C/[C@@H](O)[C@@H](N)CO [Lipid 97, D-erythro-sphingosine (C22 group)] | can effectively orally deliver | number of organs into which nucleic acid is significantly delivered (among the 6 organs in the experiments): two organs; oral delivery of sRNA single-stranded nucleic acid into the kidney tissue of mice: can significantly efficiently orally deliver; oral delivery of sRNA single-stranded nucleic acid into the lung tissue of mice: can significantly efficiently orally deliver
CCCCCCCCCCCCC/C=C/[C@@H](O)[C@@H](N)CO [Lipid 98, D-erythro-sphingosine] | can effectively orally deliver | overall nucleic acid delivery performance among the lipids (across the 6 organs in the experiments): most significant delivery performance; oral delivery of sRNA single-stranded nucleic acid into the kidney tissue of mice: can significantly efficiently orally deliver; oral delivery of sRNA single-stranded nucleic acid into the lung tissue of mice: can significantly efficiently orally deliver; oral delivery of sRNA single-stranded nucleic acid into the spleen tissue of mice: can significantly efficiently orally deliver
CCCCCCCCC/C=C/[C@@H](O)[C@@H](N)CO [Lipid 99, D-erythro-sphingosine (C14 group)] | can effectively orally deliver | oral delivery of sRNA single-stranded nucleic acid into the spleen tissue of mice: can significantly efficiently orally deliver
CCCCCCCCCCC/C=C/[C@@H](O)[C@@H](N)CO [Lipid 100, D-erythro-sphingosine (C16 group)] | can effectively orally deliver | oral delivery of sRNA single-stranded nucleic acid into the spleen tissue of mice: can significantly efficiently orally deliver
CCCCC/C=C\C/C=C\CCCCCCCC(=O)OC[C@H](COP(=O)([O-])OCC[N+](C)(C)C)OC(=O)CCCCCCC/C=C\C/C=C\CCCCC [Lipid 107, 1,2-dilinoleoyl-sn-glycero-3-phosphocholine] | can effectively orally deliver | 
CCCCCCCCCCCCCCCC(=O)OC[C@H](COP(=O)(O)O[C@H]1C(O)C(O)C(O)[C@@H](O)C1O)OC(=O)CCCCCCCCCCCCCCC (some centres unmarked) [Lipid 109, 1,2-dipalmitoyl-sn-glycero-3-phospho-(l′-myo-inositol) (ammonium salt)] | can effectively orally deliver | 
CCCCCCCCCCCCCCCCCC(=O)OCC(O)COC(=O)CCCCCCCCCCCCCCC (centres unmarked) [Lipid 111, 1-palmitin-3-stearin] | can effectively orally deliver | 
CCCCCCCCCCCCCCCCCCCC(=O)OCC(COC(=O)CCCCCCCCCCCCCCCCCCC)OC(=O)CCCCCCCCCCCCCCCCCCC [Lipid 112, Trieicosanoin] | can effectively orally deliver | 
CCCCCCCCCCCCCCCC(=O)OC[C@@H](O)COP(=O)([O-])OCC[N+](C)(C)C [Lipid 113, 1-palmitoyl-2-hydroxy-sn-glycerol-3-phosphatidylcholine] | can effectively orally deliver | 
CCCCCCCC/C=C\CCCCCCCC(=O)OCC(O)COP(=O)(O)OCCN (centres unmarked) [Lipid 116, 1-(9Z-octadecenoyl)-sn-glycero-3-phosphoethanolamine] | can effectively orally deliver | 
CCCCCCCC/C=C\CCCCCCCC(=O)OC[C@H](COP(=O)([O-])OCC[N+](C)(C)C)OC(=O)CCCCCCC/C=C\CCCCCCCC [Lipid 117, 1,2-bis-(9Z-octadecenoyl)-sn-glycero-3-phosphocholine] | can effectively orally deliver | 
CCCCCCCC/C=C\CCCCCCCC(=O)O[C@H](COC(=O)CCCCCCCCCCCCCCC)COP(=O)([O-])OCC[N+](C)(C)C [Lipid 118, 1-palmitoyl-2-oleoyl-sn-glycero-3-phosphatidylcholine] | can effectively orally deliver | 
CCCCCCCCCCCCCCCC(=O)OCC(COP(=O)([O-])OCC[N+](C)(C)C)OC(=O)CCCCCCCCCCCCCCC (centres unmarked) [Lipid 119, 1,2-dihexadecanoyl-sn-glycero-3-phosphocholine] | can effectively orally deliver | 
N-palmitoleoyl-D-erythro-sphingosylphosphocholine [Lipid 103] | can effectively orally deliver | oral delivery of sRNA single-stranded nucleic acid into the lung tissue of mice: can significantly efficiently orally deliver
N-palmitoyl-D-erythro-sphingosylphosphocholine [Lipid 105] | can effectively orally deliver | oral delivery of sRNA single-stranded nucleic acid into the blood of mice: can significantly efficiently orally deliver
N-stearoyl-D-erythro-sphingosylphosphocholine [Lipid 104] | can effectively orally deliver | oral delivery of sRNA single-stranded nucleic acid into the blood of mice: can significantly efficiently orally deliver
